Data published in US20060128724A1, “Pyrazole-substituted aminoheteroaryl compounds as protein kinase inhibitors” (AGOURON PHARMACEUTICALS, INC., priority 2004, published 2006).
Where two headings read alike, the source gives them in different places.

Biological target: T1, c-MET (HGFR) (Homo sapiens, UniProt P08581)
T1 construct: purchased Upstate 14-526
Assay: HGFR Continuous-Coupled Spectrophotometric Assay
Format: biochemical
Details: Met-2 substrate peptide, 50 nM HGFR, 37° C.
Excerpt: The following in vitro assay may be used to determine the level of activity and effect of the different compounds of the present invention on one or more of the PKs. Similar assays can be designed along the same lines for any PK using techniques well known in the art.
The general procedure is as follows: compounds and kinase assay reagents are introduced into test wells. The assay is initiated by addition of the kinase enzyme. Enzyme inhibitors reduce the measured activity of the enzyme.
In the continuous-coupled spectrophotometric assay the time-dependent production of ADP by the kinase is determined by analysis of the rate of consumption of NADH by measurement of the decrease in absorbance at 340 nm. As the PK produces ADP it is re-converted to ATP by reaction with phosphoenol pyruvate and pyruvate kinase. Pyruvate is also produced in this reaction. Pyruvate is subsequently converted to lactate by reaction with lactate dehydrogenase, which simultaneously converts NADH to NAD.
HGFR Continuous-Coupled Spectrophotometric Assay
This assay analyzes the tyrosine kinase activity of HGFR on the Met-2 substrate peptide, a peptide derived from the activation loop of the HGFR.
• 1. […] Dissolve up in 200 mM HEPES, pH 7.5 at 10 mM stock. • 3. 1 M PEP (phospho-enol-pyruvate) in 200 mM HEPES, pH 7.5 • 4. 100 mM NADH (B-Nicotinamide Adenine Dinucleotide, Reduced Form) in 200 mM HEPES, pH 7.5 • 5. 4 M MgCl2 (Magnesium Chloride) in ddH2O • 6. 1 M DTT (Dithiothreitol) in 200 mM HEPES, pH 7.5 • 7. 15 Units/mL LDH (Lactic Dehydrogenase) • 8. 15 Units/mL PK (Pyruvate Kinase) • 9. 5M NaCl dissolved in ddH2O • 10. Tween-20 (Protein Grade) 10% Solution • 11. 1 M HEPES buffer: (N-[2-Hydroxethyl]piperazine-N-[2-ethanesulfonic acid]) Sodium Salt. Dissolve in ddH2O, adjust pH to 7.5, bring volume to 1 L. Filter at 0.1 μm. • 12. […] 100% DMSO (SIGMA) • 14. […] Beckman DU-650 w/micro cell holders • 18. Beckman 4-position micro cell cuvette Procedure:
Prep Dilution Buffer (DB) for Enzyme (For 30 mL prep) • 1. DB final concentration is 2 mM DTT, 25 mM NaCl2, 5 mM MgCl2, 0.01% Tween-20, and 50 mM HEPES buffer, pH 7.5. • 2. Make up 50 mM HEPES by adding 1.5 mL 1 M HEPES into 28.1 mL of ddH2O. Add rest of the reagents. Into 50 mL conical vial, add 60 μL of 1M DTT, 150 μL 5M NaCl2, 150 μL 1M MgCl2, and 30 μL of 10% Tween-20 to give total volume of 30 mL. • 3. […] Aliquot out DB at 1 mL/tube and label tubes as “DB HGFR” • 5. Note: This can be prepared and stored ahead of time. • 6. Freeze un-used aliquots in microcentrifuge tubes at −20° C. freezer. […] For compound dilution plate, add 4 μL of 10 mM stock into column 1 of plate, and bring volume to 100 μL with 100% DMSO. • 2. Set up the Precision 2000 dilution method. A final concentration of 200 μM compound in 50% DMSO, 100 mM HEPES (1:2 serial dilution). Prep Coupled Enzymatic Buffer:
1. Final concentration in assay:
• 2. For a 10 mL reaction buffer add 10 μL of 1M PEP, 33 μL of 100 mM NADH, 50 μL of 4M MgCl2, 20 μL of 1M DTT, 6 μL of 500 mM ATP, and 500 μL of 10 mM Met-2 peptide into 100 mM HEPES buffer pH 7.5 and vortex/mix. • 3. Add coupling enzymes, LDH and PK, into reaction mix. Mix by gentle inversion. Running Samples
1. Spectrophotometer settings:
• 2. Add 85 μL of CE reaction mix into each well of assay plate. • 3. Add 5 μL of diluted compound into a well of the assay plate. • 4. Add 5 μL of 50% DMSO for negative control into last column of assay plate. • 5. Mix with multi-channel pipettor or orbital shaker. • 6. Pre-incubate for 10 minutes at 37° C. • 7. Add 10 μL of 500 nM HGFR to each well of assay plate; the final HGFR concentration is 50 nM in a total final volume of 100 μL. • 8. Measure activity for 10 minutes at λ=340 nm and 37° C.

T1 sequence (P08581 974-1390 limits assumed): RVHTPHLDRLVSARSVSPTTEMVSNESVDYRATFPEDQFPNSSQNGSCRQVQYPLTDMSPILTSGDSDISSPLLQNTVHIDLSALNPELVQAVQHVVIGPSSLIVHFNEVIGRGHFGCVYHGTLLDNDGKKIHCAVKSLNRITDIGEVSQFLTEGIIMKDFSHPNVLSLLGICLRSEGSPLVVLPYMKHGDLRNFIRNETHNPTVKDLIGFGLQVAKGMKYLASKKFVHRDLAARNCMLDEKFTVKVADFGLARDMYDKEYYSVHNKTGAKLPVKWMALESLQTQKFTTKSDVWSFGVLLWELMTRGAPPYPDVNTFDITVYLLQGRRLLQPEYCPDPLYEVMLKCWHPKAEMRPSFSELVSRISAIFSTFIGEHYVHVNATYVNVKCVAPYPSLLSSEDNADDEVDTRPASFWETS

Row | Compound | Ki (read-out: Met Ki) [nM] | Ki (read-out: c-Met Ki) [nM]
1 | 4-(4-{6-Amino-5-[1- (2,6-dichloro-3-fluoro- phenyl)-ethoxy]-pyridin- 3-yl}-pyrazoI-1-yl)- piperidine-1- carboxylic acid dimethylamide [Example 120] | 16 | 
2 | CCOC(=O)[C@H]1CC1Cn1cc(-c2cnc(N)c(OC(C)c3c(Cl)ccc(F)c3Cl)c2)cn1 (stereo in doubt) [Example 9, ethyl 2-[(4-{6-amino-5-[1-(2,6-dichloro-3-fluorophenyl)ethoxy]pyridin-3-yl}-1H-pyrazol-1-yl)methyl]cyclopropanecarboxylate] |  | 42
3 | CNC(=O)[C@H]1C[C@@H]1Cn1cc(-c2cnc(N)c(OC(C)c3c(Cl)ccc(F)c3Cl)c2)cn1 (stereo in doubt) [Example 10, 2-[(4-{6-amino-5-[1-(2,6-dichloro-3-fluorophenyl)ethoxy]pyridin-3-yl}-1H-pyrazol-1-yl)methyl]-N-methylcyclopropanecarboxamide] |  | 71
4 | CC(Oc1cc(-c2cnn(C[C@H]3C[C@@H]3C(=O)N(C)C)c2)cnc1N)c1c(Cl)ccc(F)c1Cl (stereo in doubt) [Example 11, 2-[(4-{6-amino-5-[1-(2,6-dichloro-3-fluorophenyl)ethoxy]pyridin-3-yl}-1H-pyrazol-1-yl)methyl]-N,N-dimethylcyclopropanecarboxamide] |  | 144
5 | CC(Oc1cc(-c2cnn([C@H](C)C(=O)NCCCN(C)C)c2)cnc1N)c1c(Cl)ccc(F)c1Cl (stereo in doubt) [Example 74, 2-(4-{6-Amino-5-[1-(2,6-dichloro-3-fluoro-phenyl)-ethoxy]-pyridin-3-yl}-pyrazol-1-yl)-N-(3-dimethylamino-propyl)-propionamide] |  | 40
6 | CC(Oc1cc(-c2cnn(C[C@H]3COC(C)(C)O3)c2)cnc1N)c1c(Cl)ccc(F)c1Cl (stereo in doubt) [Example 86, 3-[1-(2,6-Dichloro-3-fluoro-phenyl)-ethoxy]-5-[1-(2,2-dimethyl-[1,3]dioxolan-4-ylmethyl)-1H-pyrazol-4-yl]-pyridin-2-ylamine] |  | 62
7 | CC(Oc1cc(-c2cnn(C[C@H](O)CO)c2)cnc1N)c1c(Cl)ccc(F)c1Cl (stereo in doubt) [Example 87, 3-(4-{6-Amino-5-[1-(2,6-dichloro-3-fluoro-phenyl)-ethoxy]-pyridin-3-yl}-pyrazol-1-yl)-propane-1,2-diol] |  | 28
8 | C[C@@H](Oc1nc(Br)cnc1N)c1c(Cl)ccc(F)c1Cl [5-bromo-3-[(R)-1-(2,6-dichloro-3-fluoro-phenyl)-ethoxy]-pyrazin-2-ylamine] |  | 796
9 | CC(Oc1cc(-c2cnn(CC3CN(C(=O)OC(C)(C)C)C3)c2)cnc1N)c1c(Cl)ccc(F)c1Cl (stereo not shown) [Example 1, tert-butyl 3-[(4-{6-amino-5-[1-(2,6-dichloro-3-fluorophenyl)ethoxy]pyridin-3-yl}-1H-pyrazol-1-yl)methyl]azetidine-1-carboxylate] |  | 66
10 | CC(Oc1cc(-c2cnn(CC3(O)CCN(C(=O)OC(C)(C)C)CC3)c2)cnc1N)c1c(Cl)ccc(F)c1Cl (stereo not shown) [Example 3, tert-butyl 4-[(4-{6-amino-5-[1-(2,6-dichloro-3-fluorophenyl)ethoxy]pyridin-3-yl}1H-pyrazol-1-yl)methyl]-4-hydroxypiperidine-1-carboxylate] |  | 104
11 | CC(Oc1cc(-c2cnn(CC3(O)CCNCC3)c2)cnc1N)c1c(Cl)ccc(F)c1Cl (stereo not shown) [Example 4, 4-[(4-{6-amino-5-[1-(2,6-dichloro-3-fluorophenyl)ethoxy]pyridin-3-yl}1H-pyrazol-1-yl)methyl]piperidin-4-ol] |  | 62
12 | CC(Oc1cc(-c2cnn(C3CN(CC4CC4)C3)c2)cnc1N)c1c(Cl)ccc(F)c1Cl (stereo not shown) [Example 6, 5-{1-[1-(cyclopropylmethyl)azetidin-3-yl]-1H-pyrazol-4-yl}-3-[1-(2,6-dichloro-3-fluorophenyl)ethoxy]pyridin-2-amine] |  | 38
13 | CC(Oc1cc(-c2cnn(C3CN(C(=O)CN(C)C)C3)c2)cnc1N)c1c(Cl)ccc(F)c1Cl (stereo not shown) [Example 7, 3-[1-(2,6-dichloro-3-fluorophenyl)ethoxy]-5-(1-{1-[(dimethylamino)acetyl]azetidin-3-yl}-1H-pyrazol-4-yl)pyridin-2-amine] |  | 22
14 | CC(Oc1cc(-c2cnn(C3CN(CC#N)C3)c2)cnc1N)c1c(Cl)ccc(F)c1Cl (stereo not shown) [Example 8, [3-(4-{6-amino-5-[1-(2,6-dichloro-3-fluorophenyl)ethoxy]pyridin-3-yl}-1H-pyrazol-1-yl)azetidin-1-yl]acetonitrile] |  | 25
15 | CC(Oc1cc(-c2cnn(C(C)(C)C(=O)O)c2)cnc1N)c1c(Cl)ccc(F)c1Cl (stereo not shown) [Example 12, 2-(4-{6-Amino-5-[1-(2,6-dichloro-3-fluoro-phenyl)-ethoxy]-pyridin-3-yl}-pyrazol-1-yl)-2-methyl-propionic acid] |  | 180
16 | CC(Oc1cc(-c2cnn(C)c2N)cnc1N)c1c(Cl)ccc(F)c1Cl (stereo not shown) [Example 13, 5-(5-Amino-1-methyl-1H-pyrazol-4-yl)-3-[1-(2,6-dichloro-3-fluoro-phenyl)-ethoxy]-pyridin-2-ylamine] |  | 130
17 | Cc1[nH]ncc1-c1cnc(N)c(OC(C)c2c(Cl)ccc(F)c2Cl)c1 (stereo not shown) [Example 14, 3-[1-(2,6-Dichloro-3-fluoro-phenyl)-ethoxy]-5-(5-methyl-1H-pyrazol-4-yl)-pyridin-2-ylamine] |  | 700
18 | CC(Oc1cc(-c2cnn(C(C)(C)C(=O)NCCCN(C)C)c2)cnc1N)c1c(Cl)ccc(F)c1Cl (stereo not shown) [Example 16, 2-(4-{6-Amino-5-[1-(2,6-dichloro-3-fluoro-phenyl)-ethoxy]-pyridin-3-yl}-pyrazol-1-yl)-N-(3-dimethylamino-propyl)-isobutyramide] |  | 60
19 | CC(Oc1cc(-c2cnn(C(C)(C)C(=O)N3CCNCC3)c2)cnc1N)c1c(Cl)ccc(F)c1Cl (stereo not shown) [Example 17, 2-(4-{6-Amino-5-[1-(2,6-dichloro-3-fluoro-phenyl)-ethoxy]-pyridin-3-yl}-pyrazol-1-yl)-2-methyl-1-piperazin-1-yl-propan-1-one] |  | 440
20 | CC(Oc1cc(-c2cnn(C(C)(C)C(=O)N3CC[C@@H](O)C3)c2)cnc1N)c1c(Cl)ccc(F)c1Cl (stereo partly drawn) [Example 18, 2-(4-{6-Amino-5-[1-(2,6-dichloro-3-fluoro-phenyl)-ethoxy]-pyridin-3-yl}-pyrazol-1-yl)-1-((R)-3-hydroxy-pyrrolidin-1-yl)-2-methyl-propan-1-one] |  | 270
21 | CC(Oc1cc(-c2cnn(C(C)(C)C(=O)NCCN3CCOCC3)c2)cnc1N)c1c(Cl)ccc(F)c1Cl (stereo not shown) [Example 19, 2-(4-{6-Amino-5-[1-(2,6-dichloro-3-fluoro-phenyl)-ethoxy]-pyridin-3-yl}-pyrazol-1-yl)-N-(2-morpholin-4-yl-ethyl)-isobutyramide] |  | 140
22 | CC(Oc1cc(-c2cnn(C(C)(C)C(=O)NCCN3CCCC3)c2)cnc1N)c1c(Cl)ccc(F)c1Cl (stereo not shown) [Example 21, 2-(4-{6-Amino-5-[1-(2,6-dichloro-3-fluoro-phenyl)-ethoxy]-pyridin-3-yl}-pyrazol-1-yl)-N-(2-pyrrolidin-1-yl-ethyl)-isobutyramide] |  | 60
